Patent US9051300B2, “Herbicides” (Syngenta Limited, priority 2009, dated 2015)

What was measured:
Type in all cases: in vivo
[1] = tested on: Winter Wheat variety 'Hereward'; assay: Crop damage to winter wheat, post-emergence spray; conditions: 250 g/ha, no safener, evaluated after 13 days, 100=total damage to plant, 0=no damage
Description: Seeds of the Winter Wheat variety ‘Hereward’ were sown in standard soil in pots. After 8 days cultivation under controlled conditions in a glasshouse (at 24/16° C., day/night; 14 hours light; 65% humidity), the plants were sprayed post-emergence with an aqueous spray solution derived from the formulation of the technical active ingredient in acetone/water (50:50) solution containing 0.5% Tween 20 (polyoxyethylene sorbitan monolaurate, CAS RN 9005-64-5). The test plants were then grown in a glasshouse under controlled conditions in a glasshouse (at 24/16° C., day/night; 14 hours light; 65% humidity) and watered twice daily. After 13 days for pre and post-emergence, the test was evaluated (100=total damage to plant; 0=no damage to plant).

Lolium perenne (LOLPE) [2] = assay: Post-emergence herbicidal activity, glasshouse pot test; conditions: 312 h, evaluated after 13 days, 100=total damage to plant, 0=no damage
Description: (§1) Seeds of a variety of test species are sown in standard soil in pots. After cultivation for one day (pre-emergence) or after 8 days cultivation (post-emergence) under controlled conditions in a glasshouse (at 24/16° C., day/night; 14 hours light; 65% humidity), the plants are sprayed with an aqueous spray solution derived from the formulation of the technical active ingredient in acetone/water (50:50) solution containing 0.5% Tween 20 (polyoxyethylene sorbitan monolaurate, CAS RN 9005-64-5). The test plants are then grown in a glasshouse under controlled conditions in a glasshouse (at 24/16° C., day/night; 14 hours light; 65% humidity) and watered twice daily. After 13 days for pre and post-emergence, the test is evaluated (100=total damage to plant; 0=no damage to plant). Lolium perenne (LOLPE), Alopecurus myosuroides (ALOMY), Echinochloa crus-galli (ECHCG), Avena fatua (AVEFA) Post-Emergence Activity

Avena fatua (AVEFA) [3] = assay: as above; conditions: 312 h, evaluated after 13 days, 100=total damage to plant, 0=no damage
Description: as §1

[4] = tested on: Alopecurus myosuroides (ALOMY); assay: as above; conditions: 312 h, evaluated after 13 days, 100=total damage to plant, 0=no damage
Description: as §1

[5] = tested on: Echinochloa crus-galli (ECHCG); assay: as above; conditions: 312 h, evaluated after 13 days, 100=total damage to plant, 0=no damage
Description: as §1

[6] = tested on: Winter Wheat variety 'Hereward'; assay: Crop damage to winter wheat seed treated with safener cloquintocet mexyl, post-emergence spray; conditions: 250 g/ha, seed treated with cloquintocet mexyl 0.5 g/kg seed, evaluated after 13 days, 100=total damage, 0=no damage
Description: Seeds of the Winter Wheat variety ‘Hereward’ were seed treated with a wettable powder formulation of the cereal herbicide safener, cloquintocet mexyl, at a rate of 0.5 grams per kilogram of dry seed prior to the initiation of glasshouse testing. One seed was sown per 1.5 inch plastic pot into a sandy loam soil at a depth of 1 cm, 8 days prior to application of the test compounds and was watered and grown under controlled conditions in a glasshouse (at 24/16° C., day/night; 14 hours light; 65% humidity). The plants were sprayed post-emergence with an aqueous spray solution derived from the formulation of the technical active ingredient in acetone/water (50:50) solution containing 0.5% Tween 20 (polyoxyethylene sorbitan monolaurate, CAS RN 9005-64-5). The test plants were then grown in a glasshouse under controlled conditions in a glasshouse (at 24/16° C., day/night; 14 hours light; 65% humidity) and watered twice daily. After 13 days for pre and post-emergence, the test was evaluated (100=total damage to plant; 0=no damage to plant).

Lolium perenne (LOLPE) [7] = assay: Pre-emergence herbicidal activity, glasshouse pot test; conditions: rate not printed (columns shifted), evaluated after 13 days, 100=total damage to plant, 0=no damage
Description: as §1, with “Pre-Emergence” for “Post-Emergence”

Avena fatua (AVEFA) [8] = assay: as above; conditions: rate not printed (columns shifted), evaluated after 13 days, 100=total damage to plant, 0=no damage
Description: as §1, with “Pre-Emergence” for “Post-Emergence”

[9] = tested on: Alopecurus myosuroides (ALOMY); assay: as above; conditions: rate not printed (columns shifted), evaluated after 13 days, 100=total damage to plant, 0=no damage
Description: as §1, with “Pre-Emergence” for “Post-Emergence”

[10] = tested on: Echinochloa crus-galli (ECHCG); assay: as above; conditions: rate not printed (columns shifted), evaluated after 13 days, 100=total damage to plant, 0=no damage
Description: as §1, with “Pre-Emergence” for “Post-Emergence”

Structure (SMILES) | Winter Wheat (Hereward) (damage to plant) [1] | pest or weed control at 250 g/ha (Lolium perenne (LOLPE) [2]) | pest or weed control at 250 g/ha (Avena fatua (AVEFA) [3]) | pest or weed control at 250 g/ha [4] | pest or weed control at 250 g/ha [5] | Winter Wheat (Hereward) + cloquintocet mexyl (damage to plant) [6] | Pre-Emergence Activity LOLPE (damage to plant) (Lolium perenne (LOLPE) [7]) | Pre-Emergence Activity AVEFA (damage to plant) (Avena fatua (AVEFA) [8]) | Pre-Emergence Activity ALOMY (damage to plant) [9] | Pre-Emergence Activity ECHCG (damage to plant) [10]
Cc1cnc(-c2ccc(Cl)cc2)nc1C1C(=O)C/C(=C\C2CCOCC2)C1=O (centres unmarked) [Compound A9] | 50 | 40% | 60% | 20% | 100% | 0 | 70 | 50 | 10 | 100
Cc1sc(-c2ccc(Cl)cc2)nc1C1C(=O)CC(Cc2ccc(F)cn2)C1=O (centres unmarked) [Compound A12] | 70 | 100% | 90% | 100% | 100% | 80 | 100 | 90 | 100 | 100
Cc1sc(-c2ccc(Cl)cc2)nc1C1C(=O)CC(Cc2ccccn2)C1=O (centres unmarked) [Compound A16] | 60 | 100% | 100% | 90% | 100% | 60 | 90 | 80 | 90 | 100
Cc1sc(-c2ccccc2)nc1C1C(=O)CC(CC2CCOCC2)C1=O (centres unmarked) [Compound A17] | 60 | 100% | 90% | 90% | 100% | 40 | 100 | 50 | 70 | 100
Cc1sc(-c2ccc(Cl)cc2)nc1C1C(=O)CC(CC2CCOCC2)C1=O (centres unmarked) [Compound A18] | 80 | 100% | 100% | 100% | 100% | 90 | 100 | 90 | 80 | 100
Cc1cc(-c2ccc(Cl)cc2)nn1C1C(=O)CC(Cc2ccc(F)cn2)C1=O (centres unmarked) [Compound A20] | 70 | 90% | 90% | 80% | 100% | 70 | 70 | 20 | 40 | 100
Cc1cc(-c2ccc(Cl)cc2)nn1C1C(=O)C/C(=C\c2ccc(F)cn2)C1=O (centres unmarked) [Compound A21] | 20 | 60% | 30% | 70% | 90% | 10 | 90 | 10 | 40 | 90
Cc1cc(-c2ccc(Cl)cc2)nn1C1C(=O)C/C(=C/c2ccc(F)cn2)C1=O (centres unmarked) [Compound A22] | 60 | 50% | 60% | 70% | 90% | 10 | 60 | 20 | 40 | 70
Cc1cc(-c2ccc(Cl)cc2)nn1C1C(=O)C/C(=C\C2CCOCC2)C1=O (centres unmarked) [Compound A23] | 80 | 100% | 100% | 90% | 100% | 60 | 100 | 90 | 90 | 100
Cc1sc(-c2ccc(Cl)cc2)nc1C1C(=O)C/C(=C\C2CCOCC2)C1=O (centres unmarked) [Compound A24] | 70 | 90% | 90% | 100% | 100% | 0 | 100 | 60 | 60 | 100
Cc1cc(-c2ccc(Cl)cc2)nn1C1C(=O)CC(CC2CCOCC2)C1=O (centres unmarked) [Compound A25] | 80 | 100% | 100% | 100% | 100% | 40 | 90 | 70 | 70 | 100
